We go through seven compounds from ChEMBL document CHEMBL3352615, “Synthesis and evaluation of ether-linked demethylepipodophyllotoxin dimers” (Bioorg Med Chem Lett, 2014).

Activity calls are given as the source filed them. The rule behind the calls is not given here.

One data set deals with L6. Nature of the data set: Cytotoxicity against rat L6 cells after 71.5 hrs by Presto Blue assay. In kind it is cell-based. Conditions: L6, 71.5 h.
The next data set relates to A549. Nature of the data set: Cytotoxicity against human A549 cells after 48 hrs by Alamar Blue assay. In kind it is functional, cell-based. Conditions: A549, 48 h.
Data set [1] is described as follows: Selectivity ratio of IC50 for rat L6 cells to IC50 for human A549 cells. In kind it is ADME, cell-based. Conditions: L6 cells and A549 cells, read-out: Ratio IC50.
Data set [2] has as its target DNA topoisomerase 2-alpha (Homo sapiens) (UniProt P11388). Description: Inhibition of human topoisomerase-2 alpha assessed as Escherichia coli pBR322 DNA cleavage at 100 uM after 30 mins by agarose electrophoresis.

Sequence of DNA topoisomerase 2-alpha (Homo sapiens) (P11388 whole entry): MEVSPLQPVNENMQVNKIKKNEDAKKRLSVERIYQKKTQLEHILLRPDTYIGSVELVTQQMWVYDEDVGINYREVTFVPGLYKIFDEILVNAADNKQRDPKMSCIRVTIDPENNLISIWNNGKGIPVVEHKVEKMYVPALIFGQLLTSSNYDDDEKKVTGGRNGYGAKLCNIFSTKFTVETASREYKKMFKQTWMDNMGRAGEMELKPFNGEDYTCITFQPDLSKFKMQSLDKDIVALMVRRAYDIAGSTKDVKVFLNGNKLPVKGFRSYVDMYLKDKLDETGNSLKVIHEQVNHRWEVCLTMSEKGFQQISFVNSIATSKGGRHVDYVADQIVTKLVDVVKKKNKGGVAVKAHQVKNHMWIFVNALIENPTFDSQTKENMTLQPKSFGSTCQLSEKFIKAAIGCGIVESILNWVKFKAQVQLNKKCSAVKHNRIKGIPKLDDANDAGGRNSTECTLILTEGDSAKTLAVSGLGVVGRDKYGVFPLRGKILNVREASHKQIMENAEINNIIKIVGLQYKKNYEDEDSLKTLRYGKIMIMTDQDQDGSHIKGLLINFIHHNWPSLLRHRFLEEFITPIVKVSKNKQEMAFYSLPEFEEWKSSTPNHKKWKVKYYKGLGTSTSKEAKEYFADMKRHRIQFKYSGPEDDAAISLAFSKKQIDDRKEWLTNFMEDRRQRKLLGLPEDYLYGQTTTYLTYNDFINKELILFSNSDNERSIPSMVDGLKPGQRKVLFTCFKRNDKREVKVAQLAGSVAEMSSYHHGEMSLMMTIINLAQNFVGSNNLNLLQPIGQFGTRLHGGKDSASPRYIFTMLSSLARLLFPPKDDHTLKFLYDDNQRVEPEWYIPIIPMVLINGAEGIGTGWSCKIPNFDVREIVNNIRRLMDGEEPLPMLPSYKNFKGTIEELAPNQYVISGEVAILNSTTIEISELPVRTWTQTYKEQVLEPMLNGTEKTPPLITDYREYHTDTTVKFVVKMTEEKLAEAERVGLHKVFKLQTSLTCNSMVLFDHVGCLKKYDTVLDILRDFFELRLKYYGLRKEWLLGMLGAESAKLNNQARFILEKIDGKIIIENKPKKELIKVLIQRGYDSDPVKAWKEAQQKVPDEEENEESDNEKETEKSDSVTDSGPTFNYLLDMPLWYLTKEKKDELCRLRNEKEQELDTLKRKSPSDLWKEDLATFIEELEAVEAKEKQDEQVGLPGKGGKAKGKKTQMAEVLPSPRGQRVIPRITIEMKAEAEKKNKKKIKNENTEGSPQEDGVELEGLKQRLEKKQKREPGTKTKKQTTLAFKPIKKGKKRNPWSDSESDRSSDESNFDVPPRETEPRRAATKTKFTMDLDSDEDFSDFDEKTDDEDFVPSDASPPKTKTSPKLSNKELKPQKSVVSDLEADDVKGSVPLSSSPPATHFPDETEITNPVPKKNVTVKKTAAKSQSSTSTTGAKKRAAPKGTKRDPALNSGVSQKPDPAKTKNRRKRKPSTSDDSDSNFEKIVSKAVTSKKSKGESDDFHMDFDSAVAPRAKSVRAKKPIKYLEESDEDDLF

The IC50 is the concentration needed to halve the response being measured. A low value points to inhibition by little substance. Consider `COc1cc([C@@H]2c3cc4c(cc3[C@@H](OCc3ccc(CO[C@@H]5c6cc7c(cc6[C@@H](c6cc(OC)c(O)c(OC)c6)[C@H]6C(=O)OC[C@@H]65)OCO7)cc3)[C@H]3COC(=O)[C@H]23)OCO4)cc(OC)c1O`, for which the 50% inhibitory concentration (IC50) with L6 was 600 nM; in the data set on A549, 360 nM. Moreover, in data set [1], the selectivity ratio was 1.7. Moreover, the inhibition result in data set [2] is “Active”.

Consider `CCCCO[C@@H]1c2cc3c(cc2[C@@H](c2cc(OC)c(O)c(OC)c2)[C@H]2C(=O)OC[C@@H]21)OCO3`, for which the IC50 amounted to 4620 nM with L6 and 2870 nM in the data set with A549. Besides, the selectivity ratio in data set [1] was 1.6. Further, in data set [2], the inhibition result is “Active”.

In the case of `CCCCCCO[C@@H]1c2cc3c(cc2[C@@H](c2cc(OC)c(O)c(OC)c2)[C@H]2C(=O)OC[C@@H]21)OCO3`, the IC50 in the data set on L6 was found to be 4550 nM; in the data set with A549, 5970 nM. In addition, the selectivity ratio in data set [1] came out at 0.76. For the same compound, the inhibition result in data set [2] is “Active”.

In the case of `COc1cc([C@@H]2c3cc4c(cc3[C@@H](OCCCCCCO[C@@H]3c5cc6c(cc5[C@@H](c5cc(OC)c(O)c(OC)c5)[C@H]5C(=O)OC[C@@H]53)OCO6)[C@H]3COC(=O)[C@H]23)OCO4)cc(OC)c1O`, the IC50 in the data set with L6 is 300 nM; with A549, 120 nM. Besides, the selectivity ratio in data set [1] is 2.5. Moreover, the inhibition entry in data set [2] was “Active”.

On to `COc1cc([C@@H]2c3cc4c(cc3[C@@H](O[C@@H]3O[C@@H]5CO[C@@H](C)O[C@H]5[C@H](O)[C@H]3O)[C@H]3COC(=O)[C@H]23)OCO4)cc(OC)c1O` [ETOPOSIDE], for which the IC50 came out at 19000 nM in the data set on L6 and 2870 nM in the data set on A549. For the same compound, the selectivity ratio in data set [1] was 6.7. The inhibition result in data set [2] is “Active”.

For `COc1cc([C@@H]2c3cc4c(cc3[C@@H](OCc3ccccc3)[C@H]3COC(=O)[C@H]23)OCO4)cc(OC)c1O`, the values for the IC50 in the data set with L6 and in the data set on A549 were 4550 nM and 3860 nM, respectively. The selectivity ratio in data set [1] amounted to 1.2. Besides, the inhibition result in data set [2] is “Active”.

Take `COc1cc([C@@H]2c3cc4c(cc3[C@@H](OCCCCO[C@@H]3c5cc6c(cc5[C@@H](c5cc(OC)c(O)c(OC)c5)[C@H]5C(=O)OC[C@@H]53)OCO6)[C@H]3COC(=O)[C@H]23)OCO4)cc(OC)c1O`: the values for the IC50 in the data set with L6 and in the data set with A549 were 300 nM and 70 nM, respectively. Moreover, in data set [1], the selectivity ratio is 4.3. For the same compound, the inhibition entry in data set [2] is “Active”.
